Data reported in patent publication US9944721B2, “Polysialic acid and use for treatment of neurodegenerative and neuroinflammatory diseases” (RHEINISCHE FRIEDRICH-WILHELMS UNIVERSITÄT BONN, priority 2013, dated 2018).

Columns and labels:
[1] = tested on: human microglial line derived from induced pluripotent stem cells (expressing Siglec-11); experiment: MTT cell viability of human microglia treated with sialic acid forms; type: cell-based
Description: A human microglial line derived from induced pluripotent stem cells as described in WO 2010/125110 was used to study the effect of sialic acid forms with different chain length. Human microglial cells were cultured on 5 μg/ml poly-L-lysin (PLL, Sigma)-coated dishes in N2-medium containing DMEM/F12 culture medium (Gibco) supplemented with 1% N2 (Invitrogen), 0.48 mM L-glutamine (Gibco) and optionally 100 μg/ml penicillin/streptomycin (Gibco). Cells were cultured with high density and splitted 1:2 when required.
The effect of different length and fractions of oligosialic acids and polysialic acids on the human microglial lines were analyzed by determination of cell viability normalized to the cell number and after treatment with monomeric sialic acid (SA, molecular weight of 0.3 kDa, Nacalai Tesque ING, Japan) and sialic acids consisting of 3 monomers (Tri-SA; molecular weight of 0.9 kDa, Nacalai Tesque ING, Japan) and sialic acids consisting of 6 monomers (Hexa-SA; molecular weight of 1.9 kDa, Nacalai Tesque ING, Japan), PSA with a number of sialic acid monomers between 14 and 26 (PSA-20; low molecular weight of PSA between 4.3 and 8 kDa for >90% of the substance) and PSA with a length between 46 and 110 of sialic acid monomers (PSA-60; medium molecular weight of PSA between 14.2 and 34 kDa for >90% of the substance).
The microglial cells were cultured in medium as described above and treated in culture with the different sialic acid forms.
Cell viability was determined by the MTT (3-(4,5-Dimethylthiazol-2-yl)-2,5-diphenyltetrazolium bromide, Millipore) assay after 24 hours treatment with distinct sialic acid forms with different chain length and normalized to the cell number. The light absorbance of the purple formazan in living cells was determined by a spectrophotometer at a wavelength of 570 nm (Perkin Elmer, Envision Multiplate Reader).

[2] = tested on: human microglial cells stimulated with fibrillary amyloid-β1-42; experiment: Amyloid-β1-42 induced superoxide release of human microglia (DHE); type: cell-based; conditions: Aβ 10 μM
Description: The human microglial cell line was treated with human Alzheimer's disease associated fibrillary amyloid-beta peptide (Aβ) to mimic inflammatory signalling of Alzheimer's disease brain tissue. To obtain fibrillary components of Aβ, the synthetic amyloid-beta peptide (amyloid-beta 1-42, Bachem/Brucker, 10 μM) was preincubated at 37° C. for at least three days. The human microglial cells were treated with the different concentrations of 0.15 μM, 0.5 μM, or 1.5 μM of low molecular weight polysialic acid (PSA-20) for 60 minutes followed by incubation for 15 minutes with fibrillary Aβ. Then, 30 μM dihydroethidium (DHE) was added and incubated at 37° C. for 15 minutes for measurement of superoxide anion radical production. Cells were fixed with 4% paraformaldehyde plus 0.25% glutaraldehyde and analyzed by confocal microscopy. For the quantification of DHE staining intensity six pictures of each experiment were obtained and analyzed by ImageJ software (NIH). The background was subtracted and the mean values of the staining intensities were compared. Cells were fixed and the intensity of DHE was quantified by confocal microscopy.
To confirm the specificity of the DHE measurement, the determination of the effect of PSA-20 on superoxide production in human microglial cells was repeated. As a control the radical scavenger Trolox, a water-soluble vitamin E analogue, was added to the system. Furthermore, as additional control superoxide dismutase-1 (SOD1) was added into the medium. Superoxide should no longer be detectable by the DHE dye after successful transformation of superoxide by SOD1.
Human microglial cells were cultured alone and production of reactive oxygen species was analyzed after treatment with the Alzheimer's disease plaques associated fibrillary amyloid-β1-42. To measure the relative production of superoxide by the microglial cells, cells were plated in 4-chamber culture dishes. After 24 hours human microglial cells were treated with 1.5 μM of low molecular weight polysialic acid (PSA-20) for 60 minutes followed by incubation for 15 minutes with 10 μM fibrillary amyloid-β1-42. Control dishes were treated with either 1.5 μM PSA-20 and 40 μM Trolox or 1.5 μM PSA-20 and 20 μg/ml superoxide dismutase-1 (SOD1, Serva). Then, cells were washed 2-times with Krebs-HEPES-buffer and afterwards incubated for 15 minutes with 30 μM DHE solution (diluted in Krebs-HEPES-buffer). Finally cells were washed 2-times with Krebs-HEPES-buffer and fixed for 15 minutes with 0.25% glutaraldehyde and 4% PFA. In total, six images were randomly collected per experimental group by confocal laser scanning microscopy (Fluoview 1000, Olympus). All cells of the collected images were analyzed by Image J software (NIH).

poly-(α(2→8)Neu5Ac)n [PSA-20]
metabolic activity of the microglial cells (MTT, normalized to cell number) ([1]; 24 hours treatment, 0.15 μM, 0.5 μM and 1.5 μM, FIG. 2B): did not affect the metabolic activity | Intact viability of human microglia ([1]; summary of Example 3, MTT, 24 hours): Yes | Aβ induced superoxide release ([2]; 1.5 μM, 60 minutes pre-treatment, FIG. 4A): reduced | amyloid-β1-42 induced stimulation of the superoxide production ([2]; repeat, FIG. 4B, PSA-20 1.5 μM, Trolox 40 μM, SOD1 20 μg/ml): prevented
